Measurements reported in patent publication US9303069B2, “Peptides for treating cancer” (University of Mississippi Medical Center, priority 2014, dated 2016).
Ends that are not written are not given here.

Key:
AKT, ERK, MDM2 and Skp2 = assay: Signalling proteins in SKOV3 and OVCAR3 cells (Western); format: cell-based, human
Source text: Finally, to further dissect the IRIS-induced cisplatin resistance pathway, PI3′K/AKT (using […]) and ERK (using PD98059) were inactivated and compared to IRIS peptide in two aggressive ovarian cancer cell lines. […] Phosphorylation of cytoplasmic or nuclear FOXO3a by p-AKT and/or p-ERK promotes MDM2 binding and priming ubiquitylation, which is then followed by Skp2 branching ubiquitylation and FOXO3a degradation (Huang and Tindall, 2011). FOXO was less phosphorylated in LY, PD as well as IRIS-silenced/inactivated SKOV3 or OVCAR3 cells (FIG. 34). […] Consistently, in BRCA1-IRIS silenced/inactivated cells accumulation of unphosphorylated/stabilized FOXO3a was detected. In contrast, FOXO3a was still decreased to different degrees in LY or PD treated cells (FIG. 34).

[1] = tested on: MDA-MB-231 and MDA-MB-468 cells; assay: Invasion assay, matrigel coated Boyden chambers, TNBC cells; format: cell-based, human; conditions: peptide added every 3rd day
Source text: To study invasion in vitro, matrigel coated Boyden chambers were layered with MDA-MB-231 or MDA-MB-468 cells expressing shcontrol of shIRIS expressing cells, also parental cells were layered and grown in the presence of scrambled or IRIS peptide (added every 3rd day). To migrate to the lower side of the chamber or the bottom well, cells must first digest the matrigel. Four days later, a significant number of control treated cells invaded the matrigel and migrated to the lower side of the chambers (FIG. 95, 1st column and FIG. 96) and the bottom well (FIG. 97 and FIG. 98, 1st column) in both cell lines. […] Quantitatively, BRCA1-IRIS silencing or inactivation reduced the invasive/migratory ability of these TNBC cells by ˜100 fold (FIG. 96 and FIG. 97).
Cell Invasion assay. Growth reduced BD Matrigel™ invasion chamber (24 well plate, 8.0 μm, BD BioCoat™) was used to study the invasion ability of control shRNA and BRCA1-IRIS shRNA expressing MDAMB231 cells. Cells (5×10^3) in complete medium (500 μl) were seeded on the upper compartment, and the lower compartment was filled with 750 μl of complete growth medium. […] Cells invaded into the lower side of the membrane as well as those migrate to the bottom well were stained with Crystal Violet, visualized under microscope, photographed and counted. […]

HME/IRIS cells = conditions: 48 h
Experimental: (§1) All cell lines were exposed to increasing concentrations of paclitaxel and BRCA1-IRIS expression, and cells' viability was then measured.
Cell viability measurement. Cell viability under different experimental conditions was determined using the MTS assay. Briefly, cells (2.5×10^4 cells per well) were seeded in 96-well plates and incubated overnight at 37° C. in 10% humidified CO2 atmosphere. The next day they were incubated with varying concentration of peptide, or inhibitors for 24 hours at 37° C. Cell viability was determined using cell Titer 96® Aqueous (Promega, Madison, Wis., USA) following manufacturer's instructions. Cell viability (%) was expressed as a ratio of treated cells to control cells×100. […] Each experiment was done in triplicate, repeated three separate times.

MDA-MB-468 cells = conditions: 48 h
Experimental: as §1
Stable clones were then exposed to 0, 10 or 20 μM of EGFR (Erlotinib), ErbB2 (CP-724714), PI3′K/AKT (LY294002), p38 (SB203580), ERK (PD98059) or JNK (SP600125) inhibitors for 24 hours.
First, to assess the effect of this IRIS peptide, equal numbers of HME, HME/IRIS, MDA-MB-231, MDA-MB-468 and BT549 cells were exposed to increasing concentrations of scrambled or IRIS peptide for 48 hours.
Cell viability under different experimental conditions was determined using the MTS assay. Briefly, cells (2.5×10^4 cells per well) were seeded in 96-well plates and incubated overnight at 37° C. in 10% humidified CO2 atmosphere. The next day they were incubated with varying concentration of peptide, or inhibitors for 24 hours at 37° C. Cell viability was determined using cell Titer 96® Aqueous (Promega, Madison, Wis., USA) following manufacturer's instructions. Cell viability (%) was expressed as a ratio of treated cells to control cells×100. Growth inhibition was also determined by manually counting cells in five different microscopic fields. Change in cell numbers (fold) was expressed as a ratio of the means of these recording of treated cells compared to control cells×100. Each experiment was done in triplicate, repeated three separate times.

BRCA1-IRIS and survivin = assay: IHC of SKOV3 tumors for BRCA1-IRIS and survivin; format: in vivo, mice; conditions: SKOV3 tumors after treatment
Source text: Isolated tumors were mounted, sectioned and IHC stained for BRCA1-IRIS and survivin. […] It is possible that SKOV3 contain a heterogeneous population of cells that differ in their BRCA1-IRIS expression and thus that the remaining tumors are from those expressing no or low BRCA1-IRIS.
Immunohistochemistry (IHC). Ovarian tissue microarrays comprised of normal, cancer and metastatic tissues were purchased from US Biomax, Inc. Paraffin-embedded tissue sections were de-waxed in xylene and rehydrated in alcohol. Antigen-retrieval for FOXO3a and survivin was performed by heating the slides in citrate buffer (10 μM, pH 6.0) using microwave for 10 minutes. Slides were then cooled to room temperature (RT) and washed with water followed by PBS for 15 minutes each. Antigen-retrieval for BRCA1-IRIS was performed by incubating the slides in pepsin (10 μM) for 20 minutes at 37° C. Endogenous peroxidase activity was suppressed by treating the slides with 3% hydrogen peroxide for 10 minutes. After washing steps slides were incubated for 1 hour at room temperature with antibodies to human FOXO3a (Cell Signaling Technology, USA 1:400) and survivin (Cell Signaling Technology, USA 1:400). For BRCA1-IRIS staining, slides were incubated overnight at 4° C. with monoclonal BRCA1-IRIS antibody at a 1:75 dilution. […]

RRIRPRPPRLPRPRPRPLPFPRPGIGTRFLCLPQSIYRSELNVYAFGEHILQISKYS [IRIS peptide]
AKT and ERK expression and activation (AKT, ERK, MDM2 and Skp2): decreased expression and inactivated AKT and ERK
reduction of invasive/migratory ability [1]: ~100 fold
IC50 (HME/IRIS cells): ~5 µM
IC50 (MDA-MB-468 cells): ~5 µM
BRCA1-IRIS and survivin staining of remaining tumor (BRCA1-IRIS and survivin): almost complete absence of BRCA1-IRIS and survivin staining
